{"source": "patent US20160135468A1", "about": "“A Composition for Enhanced Biocidal Activity and Water Purification Device on the Same” (INDIAN INSTITUTE OF TECHNOLOGY, priority 2013, published 2016)", "key": {"[1]": {"conditions": "25° C.; cited from earlier work"}, "[2]": {"test_system": "E. coli", "assay": "Bacterial killing efficiency at low silver ion concentration (Example 3)", "type": "cell-based", "description": "This example describes the method of measuring the bacterial killing efficiency of the composition in comparison to silver ion, when low concentration of silver ion is used. […] Synthetic challenge water contains all the ions as prescribed by US NSF for challenge water studies. Source of carbonate ion is chosen one amongst the following: sodium carbonate, potassium carbonate or ammonium carbonate or a combination thereof. Source of Ag^+ is chosen one amongst the following: silver nitrate, silver acetate, silver sulfate, silver fluoride or a combination thereof. After one hour of standing, 1 mL from the samples was plated along with agar on a sterile petridish using pour plate method."}, "[3]": {"test_system": "S. aureus", "conditions": "50 ppb silver ion; input 10^7 CFU/mL; cited from earlier work"}, "[4]": {"test_system": "E. coli", "conditions": "cited from earlier work"}, "[5]": {"test_system": "E-coli", "assay": "Sterility of stored treated water (Example 7)", "type": "cell-based", "conditions": "24 h storage"}, "[6]": {"test_system": "MS2 bacteriophage", "assay": "Virus killing efficiency, plaque assay (Example 9)", "type": "cell-based"}, "[7]": {"test_system": "MS2 bacteriophage", "assay": "Kinetics of virus killing efficiency (Example 10)", "type": "cell-based", "protocol": "Synthetic water having the TDS between 300-500 ppm and pH=7±0.2 was used in the study. […] 1 mL of the sample along with soft agar was plated on a sterile petridish using plaque assay method after 15 min, 30 min, 45 min and 60 min of contact time."}, "[8]": {"test_system": "E. coli", "assay": "Bacterial killing efficiency in sea salt containing water (Example 2)", "type": "cell-based", "conditions": "Ag^+ 50 ppb (composition with CO3^2− 20 ppm), input 1×10^5 CFU/mL, 1 h standing", "protocol": "In an aspect, 100 mL of synthetic water (typically containing E. coli concentration of 1×10^5 CFU/mL, unless otherwise mentioned) with Ag^+ (50 ppb) and Ag^+ (50 ppb)/CO3^2− (20 ppm) was separately shaken with different concentrations of sea salt. […] Synthetic challenge water contains all the ions as prescribed by US NSF for challenge water studies. Typically, one hour of standing time, unless otherwise mentioned, is provided for the exposure of microorganisms to the biocidal composition. After one hour of standing, 1 mL from the samples was plated along with agar on a sterile petridish using the pour plate method."}, "[9]": {"test_system": "E. coli", "assay": "Bacterial killing efficiency with varying humic acid (Example 4)", "type": "cell-based", "protocol": "In an aspect, 100 mL of synthetic water samples (typically containing bacterial concentration of 1×10^5 CFU/mL, unless otherwise mentioned) containing varying concentrations of humic acid were separately shaken with Ag^+(50 ppb) and Ag^+(50 ppb)/CO3^2−(20 ppm). Synthetic challenge water contains all the ions as prescribed by US NSF for challenge water studies. […] After one hour of standing, 1 mL from the samples was plated along with agar on a sterile petridish using pour plate method."}, "[10]": {"test_system": "S. aureus (MTCC 96)", "assay": "S. aureus killing efficiency (Example 6)", "type": "cell-based", "protocol": "In an aspect, 100 mL of synthetic water (typically containing E-coli concentration of 1×10^5 CFU/mL, unless otherwise mentioned) was separately shaken with Ag^+ and Ag^+/CO3^2−. Synthetic challenge water contains all the ions as prescribed by US NSF for challenge water studies. Source of carbonate ion is chosen one amongst the following: sodium carbonate, potassium carbonate or ammonium carbonate or a combination thereof. Source of Ag^+ is chosen one amongst the following: silver nitrate, silver acetate, silver sulfate, silver fluoride or a combination thereof. 1 mL of the sample was plated along with nutrient agar on a sterile petridish using the pour plate method after 1 h. After 48 hours of incubation of plating at 37° C., the colonies were counted and recorded."}, "[11]": {"test_system": "MS2 bacteriophage", "assay": "Virus killing efficiency at higher virus input load (Example 11)", "type": "cell-based", "conditions": "input virus concentration higher than 10^3 PFU/mL; silver ion alone", "protocol": "Synthetic challenge water contains all the ions as prescribed by US NSF for challenge water studies. […] After one hour of contact time, 1 mL of the sample along with soft agar was plated on a sterile petridish using plaque assay method."}, "[12]": {"test_system": "E-coli", "assay": "Bacterial killing efficiency of M^n+ and M^n+/CO3^2− (Example 5)", "type": "cell-based", "conditions": "iron 200 ppb, zinc 1 ppm, carbonate 20 ppm; input 1×10^5 CFU/mL"}}, "data": [{"compound": "[Cl][Ag]", "note": "[AgCl]", "values": [{"measurement": "solubility in water", "setting": "[1]", "value": 1.9, "unit": "µg/mL"}]}, {"compound": "[Ag+]", "note": "[Ag^+, silver ion]", "values": [{"measurement": "residual viable bacterial count", "setting": "[2]; 50 ppb Ag^+, input 1×10^5 CFU/mL, 1 h", "value": "10-50 CFU/mL"}, {"measurement": "antibacterial activity, log reduction", "setting": "[2]; silver ion below 40-50 ppb, synthetic challenge water", "value": "2-3 log reduction"}, {"measurement": "time to inactivate S. aureus", "setting": "[3]", "value": "over 24 h"}, {"measurement": "minimum concentration of silver necessary for antibacterial activity", "setting": "[4]", "value": "40-50 ppb"}, {"measurement": "bacterial count after storage", "setting": "[5]; lower silver concentrations (<50 ppb)", "value": "> 10^3 CFU/mL"}, {"measurement": "bacterial count after storage", "setting": "[5]; silver ion 50 ppb", "value": 0, "unit": "CFU/mL"}, {"measurement": "residual virus", "setting": "[6]; higher silver ion concentration without SiO3^2− or CO3^2−", "value": "residual virus concentration is present"}, {"measurement": "time at which virus killing efficiency reaches a saturation value", "setting": "[7]; Ag^+ 50 ppb alone", "value": 1, "unit": "h"}, {"measurement": "output bacterial count", "setting": "[8]; sea salt 850 ppm", "value": 2000, "unit": "CFU/mL"}, {"measurement": "output bacterial count", "setting": "[8]; sea salt 1100 ppm", "value": "10,000 CFU/mL"}, {"measurement": "humic acid concentration up to which bacterial count is handled", "setting": "[9]; 50 ppb Ag^+", "value": "up to 5 ppm"}, {"measurement": "output count", "setting": "[9]; humic acid 50 ppm, Ag^+ 50 ppb (composition with CO3^2− 20 ppm), input 1×10^5 CFU/mL", "value": "near to the input concentration"}, {"measurement": "S. aureus concentration", "setting": "[10]; silver ion up to 50 ppb, 1 h standing", "value": "≥ 10^3 CFU/mL"}, {"measurement": "virus killing ability", "setting": "[11]", "value": "unable to obtain complete virus killing ability"}]}, {"compound": "O=C(O)O", "note": "[CO3^2−, carbonate]", "values": [{"measurement": "reduction in bacterial count by itself", "setting": "[2]; CO3^2− without Ag^+", "value": "doesn't provide a significant reduction in bacterial count"}, {"measurement": "virus killing efficiency", "setting": "[6]; 20 ppm CO3^2−, no Ag^+, 1 h", "value": 25, "unit": "%"}, {"measurement": "virus killing efficiency", "setting": "[7]; 20 ppm CO3^2−, standing time 1 h", "value": 20, "unit": "%"}, {"measurement": "viable bacteria count", "setting": "[10]; 20 ppm CO3^2− alone", "value": "> 10^5 CFU/mL"}]}, {"compound": "[Fe+3]", "note": "[Fe^3+]", "values": [{"measurement": "reduction in bacterial count", "setting": "[12]", "value": "does not offer any reduction in bacterial count"}]}]}
